PubChem BioAssay AID330 (DTP/NCI, 2004)
Where “and” joins values, the source holds several entries; their conditions need not be identical. Equal values may be shown once. Inconclusive results and toxic doses are left out.

Test system: P388 leukemia ip, CD2F1 mice, survival T/C
Experiment: NCI In Vivo Anticancer Drug Screen. Data for tumor model P388 Leukemia (intraperitoneal) in CD2F1 (CDF1) mice
Conditions: endpoint: median survival time, higher = longer survival
Method in brief: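 Mice carrying the transplanted tumor received test compound or vehicle. Survival was recorded in each group, and the value is the treated-group measurement divided by that of the vehicle-treated control group.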

[1] = dose: 50.0 mg/kg/injection, schedule: Q01DX005 (ip), vehicle: Klucel (hydroxypropylcellulose) (HPC)
[2] = dose: 100.0 mg/kg/injection, schedule: Q01DX005 (ip), vehicle: Klucel (hydroxypropylcellulose) (HPC)
[3] = dose: 200.0 mg/kg/injection, schedule: Q01DX005 (ip), vehicle: Klucel (hydroxypropylcellulose) (HPC)
[4] = dose: 50.0 mg/kg/injection, schedule: Q01DX009 (ip), vehicle: saline with Tween-80
[5] = dose: 200.0 mg/kg/injection, schedule: Q01DX009 (ip), vehicle: saline with Tween-80
[6] = dose: 50.0 mg/kg/injection, schedule: Q01DX005 (ip), vehicle: saline
[7] = dose: 100.0 mg/kg/injection, schedule: Q01DX005 (ip), vehicle: saline
[8] = dose: 200.0 mg/kg/injection, schedule: Q01DX005 (ip), vehicle: saline
[9] = dose: 120.0 mg/kg/injection, schedule: Q01DX005 (ip), vehicle: saline with Tween-80
[10] = dose: 60.0 mg/kg/injection, schedule: Q01DX005 (ip), vehicle: Klucel (hydroxypropylcellulose) (HPC)
[11] = dose: 120.0 mg/kg/injection, schedule: Q01DX005 (ip), vehicle: Klucel (hydroxypropylcellulose) (HPC)
[12] = dose: 100.0 mg/kg/injection, schedule: Q04DX002 (ip), vehicle: saline with Tween-80
[13] = dose: 50.0 mg/kg/injection, schedule: Q04DX003 (ip), vehicle: saline with Tween-80
[14] = dose: 100.0 mg/kg/injection, schedule: Q04DX003 (ip), vehicle: saline with Tween-80

In the case of `COc1cc(/C=C/C(=O)O)cc(OC)c1`, the T/C [1] is reported as 103 % of control, the T/C [2] is reported as 103 % of control and the T/C [3] is reported as 109 % of control.
`CN(C)Cc1c(N=Nc2cccc3c(N=Nc4[nH]c5ccccc5c4CN(C)C)cccc23)[nH]c2ccccc12` was tested, and the T/C [4] was 110 % of control, the T/C (dose: 100.0 mg/kg/injection, schedule: Q01DX009 (ip), vehicle: saline with Tween-80) was 108 % of control and the T/C [5] was 89 % of control.
With `CCCCN(CCO)CC(O)Cn1cnc2c(N)ncnc21` (centres undefined) (tested in a mixture with another compound) the T/C (dose: 60.0 mg/kg/injection, schedule: Q01DX005 (ip), vehicle: saline) was 94 % of control, the T/C (dose: 120.0 mg/kg/injection, schedule: Q01DX005 (ip), vehicle: saline) was 97 % of control and the T/C (dose: 240.0 mg/kg/injection, schedule: Q01DX005 (ip), vehicle: saline) was 94 % of control.
In the case of `COC(CNC(=O)COc1ccccc1OCC(=O)NCC(OC)OC)OC`, the T/C [6] is reported as 99 % of control, the T/C [7] is reported as 102 % of control and the T/C [8] is reported as 102 % of control.
In the case of `CC1=NN(C2=NS(=O)(=O)c3ccccc3N2C)C(=O)C1`, the T/C (dose: 60.0 mg/kg/injection, schedule: Q01DX005 (ip), vehicle: saline with Tween-80) is reported as 86 % of control, the T/C [9] is reported as 90 % of control and the T/C (dose: 240.0 mg/kg/injection, schedule: Q01DX005 (ip), vehicle: saline with Tween-80) is reported as 90 % of control.
For `Cc1ccc(CC2C=CCN2)cc1` (centres undefined), the T/C (dose: 100.0 mg/kg/injection, schedule: Q01DX001 (ip), vehicle: distilled water + alcohol) was 99 % of control and the T/C (dose: 200.0 mg/kg/injection, schedule: Q01DX001 (ip), vehicle: distilled water + alcohol) was 100 % of control.
In the case of `O=C(c1ccccc1)N1OC2C=CC1C2` (centres undefined), the T/C (dose: 12.5 mg/kg/injection, schedule: Q01DX009 (ip), vehicle: saline with Tween-80) is reported as 100 % of control, the T/C (dose: 25.0 mg/kg/injection, schedule: Q01DX009 (ip), vehicle: saline with Tween-80) is reported as 89 % of control and the T/C [4] is reported as 100 % of control and 103 % of control.
`Cc1cc(=O)[nH]c(/N=C(/N)N(C)C)n1` was tested, and the T/C (dose: 50.0 mg/kg/injection, schedule: Q01DX009 (ip), vehicle: saline) was 101 % of control, the T/C (dose: 100.0 mg/kg/injection, schedule: Q01DX009 (ip), vehicle: saline) was 98 % of control and the T/C (dose: 200.0 mg/kg/injection, schedule: Q01DX009 (ip), vehicle: saline) was 108 % of control.
With `CCCCCCCC/C=C\CCCCCCCCN1CC(C(=O)[O][Pb]([CH2]C)([CH2]C)[CH2]C)CC1=O` (centres undefined) the T/C (dose: 0.75 mg/kg/injection, schedule: Q01DX009 (ip), vehicle: saline with Tween-80) was 105 % of control, the T/C (dose: 1.5 mg/kg/injection, schedule: Q01DX009 (ip), vehicle: saline with Tween-80) was 105 % of control and the T/C (dose: 6.0 mg/kg/injection, schedule: Q01DX009 (ip), vehicle: saline with Tween-80) was 115 % of control.
`CC(C)(C)n1nc(C2CC2)cc1NC(=O)Nc1ccccc1` was tested, and the T/C (dose: 30.0 mg/kg/injection, schedule: Q01DX005 (ip), vehicle: Klucel (hydroxypropylcellulose) (HPC)) was 99 % of control, the T/C [10] was 98 % of control and the T/C [11] was 98 % of control.
In the case of `CCN(CC)CCOC1CC(C)CCC1C(C)C` (centres undefined), the T/C [6] is reported as 111 % of control, the T/C [7] is reported as 100 % of control and the T/C [8] is reported as 100 % of control.
`CN1C=CC2C(C(=O)O)CC2C1=O` (centres undefined) was tested, and the T/C (dose: 100.0 mg/kg/injection, schedule: Q04DX002 (ip), vehicle: saline) was 99 % of control, the T/C (dose: 200.0 mg/kg/injection, schedule: Q04DX002 (ip), vehicle: saline) was 115 % of control and the T/C (dose: 400.0 mg/kg/injection, schedule: Q04DX002 (ip), vehicle: saline) was 109 % of control.
For `N#CNC(=NC12CC3CC(CC(C3)C1)C2)Nc1ccncc1`, the T/C [12] was 100 % of control and the T/C (dose: 400.0 mg/kg/injection, schedule: Q04DX002 (ip), vehicle: saline with Tween-80) was 109 % of control.
In the case of `CC(C)C12CCC3(C)CCC1(C)CCC32O` (centres undefined), the T/C (dose: 12.0 mg/kg/injection, schedule: Q01DX009 (ip), vehicle: Klucel (hydroxypropylcellulose) (HPC)) is reported as 111 % of control, the T/C (dose: 24.0 mg/kg/injection, schedule: Q01DX009 (ip), vehicle: Klucel (hydroxypropylcellulose) (HPC)) is reported as 96 % of control and the T/C (dose: 48.0 mg/kg/injection, schedule: Q01DX009 (ip), vehicle: Klucel (hydroxypropylcellulose) (HPC)) is reported as 96 % of control. For the same compound, the T/C (dose: 96.0 mg/kg/injection, schedule: Q01DX009 (ip), vehicle: Klucel (hydroxypropylcellulose) (HPC)) was 111 % of control.
For `CCCC1CCCCN1C` (centres undefined), the T/C (dose: 3.12 mg/kg/injection, schedule: Q01DX005 (ip), vehicle: saline with Tween-80) was 105 % of control, the T/C (dose: 6.25 mg/kg/injection, schedule: Q01DX005 (ip), vehicle: saline with Tween-80) was 105 % of control and the T/C (dose: 12.5 mg/kg/injection, schedule: Q01DX005 (ip), vehicle: saline with Tween-80) was 108 % of control. For the same compound, the T/C (dose: 25.0 mg/kg/injection, schedule: Q01DX005 (ip), vehicle: saline with Tween-80) was 105 % of control.
For `Cc1ccc2nc(N(C)C)[nH]c2c1`, the T/C (dose: 50.0 mg/kg/injection, schedule: Q01DX005 (ip), vehicle: other) was 105 % of control and the T/C (dose: 100.0 mg/kg/injection, schedule: Q01DX005 (ip), vehicle: other) was 109 % of control.
With `Nc1ccc(C(=O)Nc2ccc(S(=O)(=O)O)c3cccc(O)c23)cc1` the T/C [1] was 109 % of control, the T/C [2] was 111 % of control and the T/C [3] was 109 % of control.
For `COC(=O)/C(=C/c1ccccc1)NC(C)=O`, the T/C [10] was 104 % of control, the T/C [11] was 101 % of control and the T/C (dose: 240.0 mg/kg/injection, schedule: Q01DX005 (ip), vehicle: Klucel (hydroxypropylcellulose) (HPC)) was 97 % of control.
For `COC(=O)Nc1nc2ccc(C(=O)OCC(C)C)cc2[nH]1`, the T/C [12] was 98 % of control and the T/C (dose: 200.0 mg/kg/injection, schedule: Q04DX002 (ip), vehicle: saline with Tween-80) was 90 % of control.
In the case of `CN(c1ccccc1)c1nnnn1-c1ccccc1`, the T/C [13] is reported as 95 % of control, the T/C [14] is reported as 104 % of control and the T/C (dose: 200.0 mg/kg/injection, schedule: Q04DX003 (ip), vehicle: saline with Tween-80) is reported as 111 % of control.
With `CCN(CC)c1ccc(NC(C(=O)c2ccccc2)c2ccccc2)cc1` (centres undefined) the T/C (dose: 3.12 mg/kg/injection, schedule: Q01DX005 (ip), vehicle: Klucel (hydroxypropylcellulose) (HPC)) was 104 % of control and 109 % of control, the T/C (dose: 6.25 mg/kg/injection, schedule: Q01DX005 (ip), vehicle: Klucel (hydroxypropylcellulose) (HPC)) was 103 % of control and 109 % of control and 96 % of control and the T/C (dose: 12.5 mg/kg/injection, schedule: Q01DX005 (ip), vehicle: Klucel (hydroxypropylcellulose) (HPC)) was 104 % of control and 121 % of control and 96 % of control. For the same compound, the T/C (dose: 25.0 mg/kg/injection, schedule: Q01DX005 (ip), vehicle: Klucel (hydroxypropylcellulose) (HPC)) was 112 % of control and 95 % of control.
For `COC(=O)NC(=Nc1cccc(C(=O)c2ccc3nc(NC(=O)OC)[nH]c3c2)c1)NC(=O)OC`, the T/C [9] was 90 % of control.
In the case of `[Cl][Pt+2]([Cl])([Cl])[Cl].[Na+].[S-]c1ncnc2nc[nH]c12.[S-]c1ncnc2nc[nH]c12`, the T/C (dose: 132.0 mg/kg/injection, schedule: Q01DX009 (ip), vehicle: saline with Tween-80) is reported as 100 % of control and the T/C [5] is reported as 109 % of control.
For `CC(=O)[O][Sn]([CH2]c1ccccc1)([CH2]c1ccccc1)[CH2]c1ccccc1`, the T/C (dose: 0.75 mg/kg/injection, schedule: Q01DX009 (ip), vehicle: saline) was 115 % of control, the T/C (dose: 1.5 mg/kg/injection, schedule: Q01DX009 (ip), vehicle: saline) was 87 % of control and the T/C (dose: 3.0 mg/kg/injection, schedule: Q01DX009 (ip), vehicle: saline) was 105 % of control. The T/C (dose: 6.0 mg/kg/injection, schedule: Q01DX009 (ip), vehicle: saline) was 108 % of control.
With `CCN(C(=S)Nc1cccc(C(F)(F)F)c1)c1ccccc1` the T/C (dose: 50.0 mg/kg/injection, schedule: Q01DX009 (ip), vehicle: Klucel (hydroxypropylcellulose) (HPC)) was 101 % of control and the T/C (dose: 100.0 mg/kg/injection, schedule: Q01DX009 (ip), vehicle: Klucel (hydroxypropylcellulose) (HPC)) was 108 % of control.
In the case of `O=C(Nc1ccc2c(c1)OCO2)O/N=C1\C(=O)Nc2ccccc21`, the T/C (dose: 25.0 mg/kg/injection, schedule: Q04DX003 (ip), vehicle: saline with Tween-80) is reported as 100 % of control, the T/C [13] is reported as 90 % of control and the T/C [14] is reported as 90 % of control.
